Test results published in US20230375530A1, “HUMAN BLOOD-BRAIN BARRIER MODEL FOR IMMUNOLOGICAL STUDIES” (WISCONSIN ALUMNI RESEARCH FOUNDATION, priority 2020, published 2023).

System: hPSC-derived Passage 1 and Passage 3 ECs
Experiment: Western blotting of DMSO- or CHIR-treated ECs
Format: cell-based, human
Description: For extended culture, ECs were selectively dissociated and replated as previously described (Nishihara et al., 2020). Cells were incubated with Accutase until endothelial cells appeared round, typically 2-3 min at 37° C. The plate was tapped to release the ECs while SMLCs remained attached, and the EC-enriched cell suspension transferred to 4× volume of DMEM/F-12 and centrifuged for 5 min, 200×g. Cells were resuspended in hECSR medium and seeded on a new collagen IV-coated plate at approximately 3×10^4 cells/cm^2. hECSR medium was replaced every other day until confluent (typically 6 days). The selective dissociation and seeding described above was repeated, and hECSR medium was again replaced every other day until confluent (typically 6 days). We denote this time point “Passage 3.” In one experiment, these steps were repeated for another two passages. Except where indicated, CHIR 99021 or vehicle (DMSO) was included in the hECSR medium for the entire duration of culture.
To enrich samples from Passage 1 cultures for ECs, the Accutase-based selective dissociation method described above was employed. Dissociated cells were centrifuged for 5 min, 200×g, and resulting cell pellets were lysed in RIPA buffer (Rockland Immunochemicals, Pottstown, PA) supplemented with 1× Halt Protease Inhibitor Cocktail (Thermo Scientific). Passage 3 cells were lysed with the above buffer directly on plates. Lysates were centrifuged at 4° C. for 5 min, 14,000×g, and protein concentration in supernatants quantified using the Pierce BCA Protein Assay Kit (Thermo Scientific). Equal amounts of protein were diluted to equal volume with water, mixed with sample buffer, and heated at 95° C. for 5 min, except lysates intended for GLUT-1 Western blotting, which were not heated. Samples were resolved on 4-12% Tris-Glycine gels and transferred to nitrocellulose membranes. Membranes were blocked for 1 h in tris-buffered saline plus 0.1% Tween-20 (TBST) supplemented with 5% non-fat dry milk. Primary antibodies (see Table 6 for antibody information) diluted in TBST plus 5% non-fat dry milk were added to membranes and incubated overnight at 4° C. on a rocking platform. Membranes were washed five times with TBST. Secondary antibodies (see Table 6 for antibody information) diluted in TBST were added to membranes and incubated for 1 h at room temperature on a rocking platform, protected from light. Membranes were washed five times with TBST and imaged using an Odyssey 9120 (LI-COR, Lincoln, NE). Band intensities were quantified using Image Studio software (LI-COR).

SMILES: Cc1c[nH]c(-c2cnc(NCCNc3ccc(C#N)cn3)nc2-c2ccc(Cl)cc2Cl)n1 [CHIR, CHIR 99021]
- PLVAP reduction in Western blots (Passage 1 ECs): not apparent
- GLUT-1 and claudin-5 in Western blots (Passage 1 and Passage 3): upregulation of GLUT-1 and claudin-5
- LSR expression (Passage 1 and Passage 3 ECs): strong increase in LSR expression
- PLVAP in Western blots (Passage 3 ECs, CHIR vs controls): robust downregulation of PLVAP
